Laboratory results published in patent publication US20020160990A1, “PHYTOSTEROL AND/OR PHYTOSTANOL DERIVATIVES” (priority 1998, published 2002).
Where two headings read alike, the source gives them in different places. Marks after values point to notes of the source that are not given here.

Key:
[1] = Solubility in Swiss rapeseed oil at room temperature by incremental addition of oil; assay type: physicochemical
Excerpt: The minimum starting ratio was about 1:1, and trials were discontinued at above 10:1.

male Fisher rats [2] = experiment: Effects of phytosterol esters on lipoproteins (HDL and non-HDL cholesterol) in rats on high fat diet; assay type: in vivo, rat; settings: time point not given; for Non HDL cholesterol Means: calculated by difference; for HDL Cholesterol Means: precipitation method
Excerpt: (§1) Thirty male Fisher rats, weighing 177±14 g, were maintained on a high fat diet (Table 1) during the 2 weeks preceding treatment. They were then randomly divided into five experimental groups consisting of 6 animals each. The control group (Group 1) remained on the high fat diet used during the 2-week pretreatment period. For the other experimental diets, in order to have isocaloric diets and an equal amount of fat in all the experimental diets, 2% (wt/wt) of the fat content of the control diet (1% coconut oil and 1% corn oil) was replaced by 2% (wt/wt) of the following lipids:
(§2) The rats were allowed free access to water and feed, and they were maintained on a 12-hour light-dark cycle. The feed in the cages was replaced daily, all unconsumed material discarded and food intake measured. Blood samples (1 ml) were taken by retroorbital puncture at the start of the experimental period (week 0) and after 2 weeks of treatment (week 2). After 4 weeks, the animals were sacrificed by withdrawing blood from the vena cava under Isoflurane anesthesia. Blood was collected into tubes containing […] as an anticoagulant.
(§3) Plasma was prepared from the heparinized blood by immediate centrifugation at 1600 g for 10 minutes at 4° C. Assays of plasma cholesterol, triglycerides, and HDL-cholesterol (precipitation method) were determined enzymatically on a COBASFARA analyzer (Roche Diagnostica, Switzerland). Non-HDL cholesterol was calculated by difference. The fatty acid composition of the diets was analyzed by gas chromatography.
(§4) All data are expressed as means±SD (standard deviation) for animals in each diet group. The mean differences between dietary groups were analyzed by one-way analysis of covariance (ANCOVA) with subsequent Dunnet's test for multiple comparison against a control group (Group 1 and/or Group 2). The covariate adjusted for was the value of the corresponding parameter at the start of the treatment period (week 0). All tests were performed at the 5%-level and 95%-confidence intervals were calculated.

male Fisher rats [3] = experiment: Effects of phytosterol esters on plasma triglycerides in rats on high fat diet; assay type: in vivo, rat; settings: for plasma triglycerides, Week 0 Means ± SD: Week 0 (pretreatment baseline), high fat diet, n=6; for plasma triglycerides, Week 2 Means ± SD: Week 2 of 2% (wt/wt) lipid in high fat diet; for plasma triglycerides, % change from pretreatment, Week 2: Week 2 vs week 0; for plasma triglycerides, Week 4 Means ± SD: Week 4 of 2% (wt/wt) lipid in high fat diet; for plasma triglycerides, % change from pretreatment, Week 4: Week 4 vs week 0
Excerpt: as §1, §2, §3, §4

male Fisher rats [4] = experiment: Effects of phytosterol esters on plasma total cholesterol in rats on high fat diet; assay type: in vivo, rat; settings: for plasma total cholesterol, Week 0 Means ± SD: Week 0 (pretreatment baseline), high fat diet, n=6; for plasma total cholesterol, Week 2 Means ± SD: Week 2 of 2% (wt/wt) lipid in high fat diet; for plasma total cholesterol, % change from pretreatment, Week 2: Week 2 vs week 0; for plasma total cholesterol, Week 4 Means ± SD: Week 4 of 2% (wt/wt) lipid in high fat diet; for plasma total cholesterol, % change from pretreatment, Week 4: Week 4 vs week 0
Excerpt: as §1, §2, §3, §4

[5] = Swiss rapeseed oil, room temperature
[6] = Swiss rapeseed oil, room temperature, minimum starting ratio about 1:1, discontinued above 10:1

In the case of `CC/C=C\C/C=C\C/C=C\C/C=C\C/C=C\C/C=C\CCC(=O)O[C@H]1CC[C@@]2(C)C(=CC[C@H]3[C@@H]4CC[C@H]([C@H](C)/C=C/[C@@H](CC)C(C)C)[C@@]4(C)CC[C@@H]32)C1` [stigmasterol docosahexaenoate], the “Solubility (in words)” value [1, 5] is reported as “miscible” and the “Solubility g oil/g material” value [1, 6] is reported as greater than 1 g oil/g material.

For `CC[C@H](/C=C/[C@@H](C)[C@H]1CC[C@H]2[C@@H]3CC=C4C[C@@H](O)CC[C@]4(C)[C@H]3CC[C@]12C)C(C)C` [stigmasterol], the “Solubility (in words)” value [1, 5] was “insoluble” and the “Solubility g oil/g material” value [1, 6] was greater than 10 g oil/g material.

For `CC/C=C\C/C=C\C/C=C\C/C=C\C/C=C\CCCC(=O)OCC` [EPA ethyl ester 90%, EPA ethyl ester], the “Solubility (in words)” value [1, 5] was “miscible” and the “Solubility g oil/g material” value [1, 6] was greater than 1 g oil/g material.

With `CC/C=C\C/C=C\C/C=C\C/C=C\C/C=C\C/C=C\CCC(=O)OCC` [docosahexaenoic acid ethyl ester 90%, docosahexaenoic acid ethyl ester] the “Solubility (in words)” value [1] was “miscible” and the “Solubility g oil/g material” value [1] was greater than 1 g oil/g material.

In the case of Stigmastanol docosahexaenoate, the “Solubility (in words)” value [1, 5] is reported as “miscible” and the “Solubility g oil/g material” value [1, 6] is reported as greater than 1 g oil/g material.

In the case of `CCC=CCC=CCC=CCC=CCC=CCC=CCCC(=O)OC1CC[C@@]2(C)C(CC[C@H]3[C@@H]4CC[C@H]([C@H](C)CC[C@@H](CC)C(C)C)[C@@]4(C)CC[C@@H]32)C1` (some centres unmarked) [Group 3, sitostanol-DHA ester], the “Non HDL cholesterol Means” value (male Fisher rats [2]) is reported as 0.75 ± 0.21^a, the “HDL Cholesterol Means” value (male Fisher rats [2]) is reported as 0.49 ± 0.10^b and the “plasma triglycerides, Week 0 Means ± SD” value (male Fisher rats [3]) is reported as 1.25 ± 0.26. For the same compound, the “plasma triglycerides, Week 2 Means ± SD” value (male Fisher rats [3]) was 0.83 ± 0.13^b, the “plasma triglycerides, % change from pretreatment, Week 2” value (male Fisher rats [3]) was −34% and the “plasma triglycerides, Week 4 Means ± SD” value (male Fisher rats [3]) was 0.74 ± 0.15^b,c. The “plasma triglycerides, % change from pretreatment, Week 4” value (male Fisher rats [3]) was −41%, the “plasma total cholesterol, Week 0 Means ± SD” value (male Fisher rats [4]) was 2.90 ± 0.58 and the “plasma total cholesterol, Week 2 Means ± SD” value (male Fisher rats [4]) was 1.79 ± 0.37^b. For the same compound, the “plasma total cholesterol, % change from pretreatment, Week 2” value (male Fisher rats [4]) was −38%, the “plasma total cholesterol, Week 4 Means ± SD” value (male Fisher rats [4]) was 1.23 ± 0.26^b and the “plasma total cholesterol, % change from pretreatment, Week 4” value (male Fisher rats [4]) was −58%.

With `CCC=CCC=CCC=CCC=CCC=CCCCC(=O)OC1CCC2(C)C(=CCC3C2CCC2(C)C(C(C)C=CC(CC)C(C)C)CCC32)C1` (centres unmarked) [stigmasterol eicosapentenoate, Stigmasterol eicosapenatenoate] the “Solubility (in words)” value [1, 5] was “miscible” and the “Solubility g oil/g material” value [1, 6] was greater than 1 g oil/g material.

In the case of `CC[C@H](CC[C@@H](C)[C@H]1CC[C@H]2[C@@H]3CC[C@H]4C[C@@H](O)CC[C@]4(C)[C@H]3CC[C@]12C)C(C)C` [stigmastanol], the “Solubility (in words)” value [1, 5] is reported as “insoluble” and the “Solubility g oil/g material” value [1, 6] is reported as greater than 10 g oil/g material.

With `CC/C=C\C/C=C\C/C=C\C/C=C\C/C=C\CCCC(=O)O[C@H]1CC[C@@]2(C)C(=CC[C@H]3[C@@H]4CC[C@H]([C@H](C)/C=C/[C@@H](CC)C(C)C)[C@@]4(C)CC[C@@H]32)C1` [Group 4, stigmasterol-EPA ester] the “Non HDL cholesterol Means” value (male Fisher rats [2]) was 1.07 ± 0.26^a,b, the “HDL Cholesterol Means” value (male Fisher rats [2]) was 0.53 ± 0.08 and the “plasma triglycerides, Week 0 Means ± SD” value (male Fisher rats [3]) was 0.98 ± 0.15. The “plasma triglycerides, Week 2 Means ± SD” value (male Fisher rats [3]) was 0.81 ± 0.19^b, the “plasma triglycerides, % change from pretreatment, Week 2” value (male Fisher rats [3]) was −17% and the “plasma triglycerides, Week 4 Means ± SD” value (male Fisher rats [3]) was 0.83 ± 0.13^b,c. For the same compound, the “plasma triglycerides, % change from pretreatment, Week 4” value (male Fisher rats [3]) was −15%, the “plasma total cholesterol, Week 0 Means ± SD” value (male Fisher rats [4]) was 2.97 ± 0.49 and the “plasma total cholesterol, Week 2 Means ± SD” value (male Fisher rats [4]) was 1.94 ± 0.12^b. For the same compound, the “plasma total cholesterol, % change from pretreatment, Week 2” value (male Fisher rats [4]) was −35%, the “plasma total cholesterol, Week 4 Means ± SD” value (male Fisher rats [4]) was 1.61 ± 0.25^b and the “plasma total cholesterol, % change from pretreatment, Week 4” value (male Fisher rats [4]) was −46%.
